“Also recorded” adds a separate entry of the source. Where two headings read alike, the source gives them in different places.

As a reminder, the EC50 is the concentration at which the effect is half-maximal.

For series [1], the system named is P. aeruginosa strains 762, PA14 and ATCC 27853. The series is described as follows: Pulmonary P. aeruginosa infection of CF and CerS2 null mice, inhalation treatment (bacteria in lung, sickness score). It counts as in vivo, mouse. As for the experimental part: (A,B) The number of bacteria in the lungs and the overall sickness score (C,D) of WT, CerS2 null and CF mice 3-4 h after intranasal infection with 1×10^8 CFU of P. aeruginosa strains 762 (A,C) and CF mice with strains PA14 and ATCC 27853. Mice were inhaled with 0.9% NaCl or acid ceramidase 1 h prior (b.i.) to infection, or with sphingosine or FTY720 1 h before (b.i.) or 1 h after (a.i.) infection. Sickness score 4, severely affected (unresponsive animal); score 3 affected, (heavy breathing, low body temperature, ruffled fur) score 2, moderately affected (ruffled fur, heavy breathing); score 1, slightly affected (ruffled fur); score 0, unaffected (healthy appearance). Data are means±s.d., n=4.
Pulmonary infection of CF or CerS2 mice was achieved by intranasal application of P. aeruginosa strains 762, ATCC 27853 or PA14. Mice inhaled acid ceramidase, sphingosine, FTY720 or a combination of sphingosine and ceramide 1 hr before or after pulmonary infection. The number of bacteria in the lung was determined by culturing aliquots of lysed lungs on agar plates. Clinical symptoms of the infection were scored.
Inhalation was performed with a PARI Boy SX nebulizer (PARI GmbH, Starnberg, Germany). This nebulizer generates a fine aerosol mist by pumping the fluid with an air jet. The mice inhaled the aerosol via a mask that is part of an oral inhalation device for children (LL-Nebulizer); the mask was clipped at the sides to cover only the mouse's nose and the surrounding part of the face. […]
P. aeruginosa were grown for 14 to 14.5 h on fresh tryptic soy agar (TSA) plates (Becton Dickinson Biosciences, Germany). […] The bacterial OD was determined, and the bacteria were diluted in prewarmed H/S to a concentration of 1×10^8 CFU per 20 μL. […]
Lungs were removed, homogenised and lysed for 10 min in 5 mg/ml saponin to release intracellular bacteria. […] Bacterial counts (CFU) were counted after 18 h.

For series [2], the system named is P. aeruginosa strain 762. The series is described as follows: Incubation of bacteria with sphingosine and increasing C16-ceramide, CFU count. It is filed as cell-based, Pseudomonas aeruginosa. The note with it: in the presence of 10 μM sphingosine. As for the experimental part: FIGS. 4A-D. The ceramide/sphingosine ratio regulates P. aeruginosa growth. (A) Representative image of two independent experiments (left hand panel) after addition of Sytox green (1 μM) for 30 min in the absence or presence of 50 μM sphingosine or 50 μM C16-ceramide (C16-Cer) in 1% DMSO. Fluorescent and thus permeabilised bacteria were quantified (right hand panel). (B-D) The inhibitory effect of sphingosine on the growth of P. aeruginosa strain 762 is decreased in vitro and in vivo by C16-ceramide. (B) Bacteria were incubated with 10 μM sphingosine, and increasing concentrations of C16-ceramide, and growth was determined by counting colony forming unit (CFU) after 24 hrs growth on LB agar plates. Number of bacteria in the lung (C) and sickness score (D) of CF mice or WT mice inhaled with either sphingosine or a combination of sphingosine and C16-ceramide 1 h before (b.i.) with 10^8 P. aeruginosa CFU strain 762. Data are means±s.d., n=3 in (A,B) and n=4 in (C,D).
The in vitro effect of sphingosine in the presence or absence of ceramide was determined by incubation of early-logarithmic grown P. aeruginosa with sphingosine or ceramide or both in different ratios and measurement of surviving bacteria measuring the number of colony forming units 24 and 48 hrs after treatment.
Bacteria were incubated in vitro with sphingosine and increasing amounts of C16-ceramide. […]

The test system of series [3] is P. aeruginosa strain 762. The series is described as follows: Effect of LCBs on P. aeruginosa growth in vitro (colony counts). The note with it: Pseudomonas aeruginosa. It counts as cell-based, Pseudomonas aeruginosa. As for the experimental part:
P. aeruginosa strain 762 or ATCC 27853 were grown in LB medium at 37° C. until the early logarithmic phase (OD550 0.2). Bacteria were then diluted in PBS to a concentration of 5×10^3 CFU/ml. Stock solutions of sphingolipids (5 mM in 7.5% n-Octyl-β-D-Glucopyranoside (OGP) or in DMSO were prepared by sonication. Sphingolipids were added to the bacteria (0.1-50 μM in 0.075% OGP or 1% DMSO). Bacteria were incubated with sphingolipids for 2 hr at 37° C. and a sample of 200 μl bacteria solution were plated on LB agar plates, incubated overnight at 37° C. and colonies were counted.
The direct effect of sphingosine and other sphingoid long chain bases (LCBs) on the growth of P. aeruginosa was examined in vitro. Bacteria were incubated with a variety of LCBs and the EC50 values on bacterial growth were determined (Table 1).

The conditions of series [4]: superscript reference marks; cited from earlier work.
Series [5] relates to P. aeruginosa ATCC 27853 internalization into tracheal epithelial cells. The series is described as follows: Uptake of P. aeruginosa into tracheal epithelial cells with cytochalasin B. It is filed as cell-based, mouse. The note with it: 10 μM cytochalasin B; strain ATCC 27853; data not shown.

In the case of `CCCCCCCCCCCCC/C=C/[C@@H](O)[C@H](CO)NC(=O)CCCCCCCCCCCCCCC` [C16-ceramide], the “effect of co-inhaled C16-ceramide on protection by sphingosine” value in series [1] (CF mice, C16-ceramide and sphingosine at a 1:1 molar ratio, 1 h before infection, strain 762) was “abrogated the protective effect of sphingosine and restored susceptibility to P. aeruginosa infection”. Besides, in the series with P. aeruginosa strain 762 [2], the “C16-ceramide concentration restoring bacterial growth” value is at least 10 µM.

On to `CCCCCCCCc1ccc(CCC(N)(CO)CO)cc1` [FTY720, 2-amino-2-[2-(4-octylphenyl)ethyl]propane-1,3-diol], for which the EC50 was 1 to 5 µM in the series on P. aeruginosa strain 762 [3] (762, Table 3, Example 3, method of Example 2, n=3 for each analog, given as ranges, read-out: EC50) and 1.9 µM with P. aeruginosa strain 762 [3] (P. aeruginosa strain 762, 2 hrs at 37° C. in 0.075% OGP, colonies counted, at least 3 independent experiments, read-out: EC50 (μM) ± S.D.). The “protection from pulmonary P. aeruginosa infection” value in series [1] (CF and CerS2 null mice, inhalation (125 μM) 1 h before or 1 h after intranasal infection with 1×10^8 CFU) is “completely protected CF and CerS2 null mice from P. aeruginosa infection and even eliminated an existing infection; also recorded: potent inhibitor in vivo; also recorded: rescue CF and CerS2 null mice from pulmonary P. aeruginosa infection; also recorded: prevents pulmonary P. aeruginosa infection”. Further, the “pK (in PBS)” value in series [4] is given as 7.8^3.

Regarding `C=C1[C@@H](C)[C@H]2[C@H](Cc3ccccc3)NC(=O)[C@]23OC(=O)/C=C/[C@H](O)CCC[C@@H](C)C/C=C/[C@H]3[C@@H]1O` [cytochalasin B], the “internalization of P. aeruginosa into tracheal epithelial cells” value in series [5] was “prevented internalization”.

These data come from patent publication US20150258043A1, “USE OF SPHINGOID LONG CHAIN BASES AND THEIR ANALOGS IN TREATING AND PREVENTING BACTERIAL INFECTIONS” (YEDA RESEARCH AND DEVELOPMENT CO. LTD., priority 2012, published 2015).
